Assay results taken from publication PMC3711284, “Anti-antimicrobial Peptides” (The Journal of Biological Chemistry, 2013).
Like-named read-outs stand apart in the source and are kept apart here. Where no end group is shown, it is not given here.

Legend:
S. aureus (ATCC6538) = assay type: cell-based, Staphylococcus aureus
human erythrocytes = test: Hemolysis assay; assay type: cell-based
Procedure: Hemolysis was determined by incubating 10% (v/v) suspension of human erythrocytes with peptides. Erythrocytes were rinsed four times in 10 mM PBS, pH 7.2, by repeated centrifugation and resuspension (3 min at 3000 × g). Erythrocytes were incubated at room temperature for 1 h in either deionized water (fully hemolysed control), PBS, or with peptide in PBS. After centrifugation at 10,000 × g for 5 min, the supernatant was separated from the pellet and the absorbance measured at 550 nm. Absorbance of the suspension treated with deionized water defined complete hemolysis. The values below correspond to the percentage of hemolysis at tested concentrations. All tests were done in triplicate.

[1] = system: Micrococcus luteus NCIMB 13267; assay type: cell-based
Procedure: (§1) MICs were determined by broth microdilution on Pseudomonas aeruginosa ATCC 27853, Escherichia coli K12, Staphylococcus aureus ATCC 25723, Micrococcus luteus NCIMB 13267, and Bacillus subtilis ATCC 6633 according to the Clinical and Laboratory Standards Institute. Typically, 100 μl of 0.5–1 × 10^6 cfu/ml of each bacterium in Mueller-Hinton medium broth (Oxoid) was incubated in 96-well microtiter plates with 100 μl of serial 2-fold dilutions of the peptides (from 100 to 0 μM) at 37 °C on a three-dimensional orbital shaker. The absorbance was measured after peptide addition at 600 nm using a Victor 2 plate reader (PerkinElmer Life Sciences). MICs were defined as the lowest peptide concentration after 24 h at 37 °C. All tests were done in triplicate.

[2] = system: Bacillus subtilis ATCC 6633; assay type: cell-based
Procedure: as §1

[3] = system: Pseudomonas aeruginosa ATCC 27853; assay type: cell-based
Procedure: as §1

Escherichia coli K12 = assay type: cell-based
Procedure: as §1

S. aureus (ATCC 25723) = assay type: cell-based
Procedure: S. aureus (ATCC 25723) culture (1 ml) was centrifuged to give a cell pellet, which was washed twice with 10 mM phosphate buffer, pH 7.4, before being reconstituted in phosphate buffer to give A600 nm = 0.008. 1 ml of the solution was dispensed in a 2-well glass chamber (LabTek) with diluted (1/500) propidium iodide (1 mg/ml, from Invitrogen). The chambers with surface-settled bacteria (60 min) were mounted on a confocal microscope (Olympus) equipped with an incubation chamber at 37 °C. Propidium iodide fluorescence emission was monitored at 625 nm for 60 min (three frames/min) using an appropriate filter after the addition of peptide (1 ml). Recorded images (XYZ) were analyzed using Fiji software to plot the number of fluorescent (stain-dead) cells as a function of time.

E. coli = test: Gram stain assay after overnight incubation with peptide; assay type: cell-based, Escherichia coli; details: incubated with peptide for 16 h, optical microscopy; anti-cBt:cBt 10:1 (100:10 μM)
Procedure: (§2) 20 μl of a bacterium culture was dispensed onto a glass slide and spread well. The slide was swiftly passed through a Bunsen flame to dry and fix cells before staining. The fixed bacteria were first covered in crystal violet (0.25%) for 30 s followed by washing with water (distilled, filtered 0.22 μm) until all of the excess stain was washed off, and then with iodine (1.0%) for 2 min before washing with a minimum amount of acetone needed to rinse off the iodine color. The cells were counterstained with safranin (0.5%) for 30 s, washed with water, and dried by a Bunsen flame. The obtained slides were viewed under a Leica DMLB fluorescent microscope. The images were obtained at ×100 magnification under oil and analyzed by ImageJ.

P. aeruginosa = test: as above; assay type: cell-based, Pseudomonas aeruginosa; details: incubated with peptide for 16 h, optical microscopy; anti-cBt:cBt 10:1 (100:10 μM)
Procedure: as §2

cBt = test: Isothermal titration calorimetry of anti-cBt into cBt; assay type: binding; details: ITC, 20 °C
Procedure: Measurements were obtained using a Microcal VP-isothermal titration calorimeter and a calorimetric cell (initial volume 1.46 ml) with a 260-s equilibration time and a 120-s initial delay after each addition. The titrations were performed at 20 °C with stirring until no further enthalpy changes were observed. Binding isotherms were recorded for cBt (30 μM) following the injection of anti-cBt (2 μl aliquots, 1.4 mM) into the cell. The observed heats were corrected for dilution effects by titrating peptide solutions, as appropriate, into the buffer and using the heat of last injections due to negligible differences between the first and last injections. All the data were corrected for the volume of the added titrant and analyzed by proprietary software (Microcal Origin 7) using a one-site binding model to allow for the determination of association constants (Ka), changes in enthalpy (ΔH) and enthropy (ΔS). Each experiment was performed in triplicate.

[4] = human erythrocytes 10% (v/v) in PBS pH 7.2, 1 h, room temperature, A550, 50% cell death compared with untreated cells, triplicate
[5] = broth microdilution, Mueller-Hinton broth, 24 h, 37 °C, A600, triplicate

Substance | Minimum inhibitory concentration (MIC) S. aureus (ATCC6538) (S. aureus (ATCC6538); ATCC6538, 24 h) | HE (LC50) (human erythrocytes; pH 7.2) | Minimum inhibitory concentration (MIC) M. luteus (NCIMB 13267) ([1]; NCIMB 13267, 24 h) | Minimum inhibitory concentration (MIC) B. subtilis (ATCC6633) ([2]; ATCC 6633, 24 h) | Minimum inhibitory concentration (MIC) P. aeruginosa (ATCC27853) ([3]; ATCC 27853, 24 h) | Minimum inhibitory concentration (MIC) E. coli (K12) (Escherichia coli K12; K12, 24 h) | HE (LC50) (human erythrocytes; [4]) | killing rate in the first 30 min (S. aureus (ATCC 25723); ATCC 25723, 1 h, 100 μM, pH 7.4) | effect on E. coli cell growth, Gram stain (E. coli) | effect on P. aeruginosa cell growth, Gram stain (P. aeruginosa) | Minimum inhibitory concentration (MIC) S. aureus (ATCC6538) (S. aureus (ATCC6538); [5]) | association (binding) constant (Ka) (cBt; anti-cBt (1.4 mM) injected into cBt (30 μM), one-site binding model, triplicate) | ΔG of binding (cBt; anti-cBt into cBt (30 μM)) | binding enthalpy (ΔH) (cBt; anti-cBt into cBt (30 μM), endothermic) | Minimum inhibitory concentration (MIC) M. luteus (NCIMB 13267) [1, 5] | Minimum inhibitory concentration (MIC) B. subtilis (ATCC6633) [2, 5] | Minimum inhibitory concentration (MIC) P. aeruginosa (ATCC27853) [3, 5] | Minimum inhibitory concentration (MIC) E. coli (K12) (Escherichia coli K12; [5]) | effect on killing of S. aureus at concentrations >100 μM (S. aureus (ATCC 25723); stain-dead S. aureus, propidium iodide, 37 °C) | killing rate at higher concentrations (>250 μM) (S. aureus (ATCC 25723); stain-dead S. aureus, cBt at MIC after 1 h = 100%)
GRFKRFRKKFKKLFKKLSPVIPLLHLG-NH2 [b27, bovine myeloid antimicrobial peptide-27, reference compound] | >100 µM | ≫250 μM | 0.74 ± 0.33 µM | 0.78 ± 0.01 µM | 4.51 ± 1.56 µM | 3.13 ± 0.43 µM |  |  |  |  |  |  |  |  |  |  |  |  |  | 
KWKVFKKIEKMGRNIRNGIVKAGPAIAVLGEAKAL-NH2 (C-terminus assumed) [cB, cecropin B, reference compound] | >100 µM |  | 0.46 ± 0.20 µM | 50.7 ± 0.10 µM | 1.56 ± 0.01 µM | 0.62 ± 0.01 µM | ≫250 μM | ~60% |  |  |  |  |  |  |  |  |  |  |  | 
GEFAQFEQEAQSLEQELSQLEQQLESL-NH2 [Anti-b27] | >200 µM | ≫250 μM | >200 µM | >200 µM | >200 µM | >200 µM |  |  |  |  |  |  |  |  |  |  |  |  |  | 
EAQNLEKEIAALEQAIQGLEKEIPALAQQIQALEL-NH2 [Anti-cBt] |  |  |  |  |  |  | ≫250 μM |  | No obvious effects | No obvious effects | >200 µM | 2.8 ± 0.2 × 10^6 M^−1 | -7.8 kcal/mol | 9.7 kcal/mol | >200 µM | >200 µM | >200 µM | >200 µM | No effects | 10%
